Assay results: patent EP0176999A2, “Amino acid derivatives, process for their preparation and pharmaceutical compositions” (BOEHRINGER INGELHEIM KG, priority 1984, dated 1986)

Columns and labels:
[1] = tested on: Angiotensin I; experiment: Lowering of blood pressure raised by i.v. angiotensin I in the anaesthetised rat; format: in vivo, Ratte; conditions: anaesthetised rat, 0,3 mg/kg i.v.; blood pressure raised beforehand by 0,1 mg/kg Angiotensin I i.v.
Protocol: So erzeugt N-[N^α-(3-Phenyl-2-S-mercaptopropanoyl)-S-lysyl]-thiazolidin-4-S-carbonsäure an der narkotisierten Ratte in einer Dosierung von 0,3 mg/kg i.v. eine lang anhaltende Blutdrucksenkung von 60 %, wenn man vorher durch eine i.v.-Gabe von 0,1 mg/kg Angiotensin I den Blutdruck steigert; beim N-[N^a-(3-Phenyl-2-S-mercaptopropanoyl)S-lysyl]-S-prolin liegt der Wert bei gleichem Test bei 57 %.

[2] = biological target: T1, Angiotensin I Converting Enzym (Oryctolagus cuniculus, UniProt P12822); experiment: Inhibition of angiotensin I converting enzyme in vitro; format: biochemical; conditions: inhibitor concentration at which the enzyme is 50 % inhibited (Cheung, Cushman method), read-out: Hemmaktivität IC50
T1 sequence (P12822 34-1310): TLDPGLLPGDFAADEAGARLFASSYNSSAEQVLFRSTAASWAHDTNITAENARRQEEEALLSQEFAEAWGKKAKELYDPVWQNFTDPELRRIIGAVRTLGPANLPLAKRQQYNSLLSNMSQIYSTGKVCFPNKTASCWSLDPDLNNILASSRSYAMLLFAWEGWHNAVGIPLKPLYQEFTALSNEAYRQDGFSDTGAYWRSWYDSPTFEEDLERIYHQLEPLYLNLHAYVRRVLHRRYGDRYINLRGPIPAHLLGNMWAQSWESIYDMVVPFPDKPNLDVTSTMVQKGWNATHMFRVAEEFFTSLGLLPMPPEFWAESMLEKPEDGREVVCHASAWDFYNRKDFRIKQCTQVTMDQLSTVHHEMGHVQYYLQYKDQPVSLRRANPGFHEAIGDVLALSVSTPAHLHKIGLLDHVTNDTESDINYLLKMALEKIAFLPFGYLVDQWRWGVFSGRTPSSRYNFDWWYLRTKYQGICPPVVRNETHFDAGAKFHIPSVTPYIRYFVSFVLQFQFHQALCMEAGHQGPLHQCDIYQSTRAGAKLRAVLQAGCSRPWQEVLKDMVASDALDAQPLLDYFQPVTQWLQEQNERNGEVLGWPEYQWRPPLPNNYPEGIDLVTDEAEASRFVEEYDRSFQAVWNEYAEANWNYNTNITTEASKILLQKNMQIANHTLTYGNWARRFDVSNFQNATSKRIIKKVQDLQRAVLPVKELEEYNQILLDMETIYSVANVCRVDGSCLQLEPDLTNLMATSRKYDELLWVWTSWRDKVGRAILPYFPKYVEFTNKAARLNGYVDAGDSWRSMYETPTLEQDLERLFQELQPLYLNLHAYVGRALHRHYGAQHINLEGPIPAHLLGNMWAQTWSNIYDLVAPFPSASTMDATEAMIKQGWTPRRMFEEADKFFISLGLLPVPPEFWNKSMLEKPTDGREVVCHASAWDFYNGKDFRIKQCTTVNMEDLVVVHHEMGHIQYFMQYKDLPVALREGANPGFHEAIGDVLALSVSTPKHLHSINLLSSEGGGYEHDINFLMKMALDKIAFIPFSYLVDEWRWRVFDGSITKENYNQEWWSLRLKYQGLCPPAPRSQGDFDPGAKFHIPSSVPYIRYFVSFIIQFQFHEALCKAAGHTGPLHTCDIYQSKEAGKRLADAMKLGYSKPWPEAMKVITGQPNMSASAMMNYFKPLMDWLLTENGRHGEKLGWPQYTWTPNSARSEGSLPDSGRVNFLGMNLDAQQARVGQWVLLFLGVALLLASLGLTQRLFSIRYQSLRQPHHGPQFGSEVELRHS
Text: N-[N^α-(3-Phenyl-2-S-mercaptopropanoyl)-S-lysyl]-thiazolidin-4-S-carbonsäure zeigt am Angiotensin I Converting Enzym in vitro eine Hemmaktivität IC50= 4,6 . 10^-9 [M]; die IC50 beträgt beim N-[N^αa-(3-Phenpl-2-S-mercaptopropanoyl)-S-lysyl]-S-prolin 2,7 . 10-^8 [M].
Als IC50 wird hierbei diejenige Hemmstoffkonzentration bezeichnet, bei der das Angiotensin I Converting Enzym zu 50 % gehemmt wird (s. H. S. Cheung, D. W. Cushman, Biochem. Biophys. Acta 293, 451 (1973)).

## NCCCC[C@H](NC(=O)[C@@H](S)Cc1ccccc1)C(=O)N1CCC[C@H]1C(=O)O [Beispiel 11]
[1]
  lang anhaltende Blutdrucksenkung: 57%

## N-[N^α-(3-Phenyl-2-S-mercaptopropanoyl)-S-lysyl]-thiazolidin-4-S-carbonsäure [Beispiel 3]
[2]
  IC50: 4.6 nM
[1]
  lang anhaltende Blutdrucksenkung: 60%
